US7615533B2, “TPO peptide compounds for treatment of anemia” (Janssen Pharmaceutica N.V., priority 2004, dated 2009)
“Also recorded” adds a separate entry of the source. Non-standard residues stand in square brackets, D forms with d. No end group written: not given here. 2Nal = N[C@@H](Cc1ccc2ccccc2c1)C(=O)O; Sar = CNCC(=O)O

Tests used:
carboplatin treated mice [1] = assay: Example 2: dosing before and/or after carboplatin, hematological parameters in mice; assay type: in vivo, BALB/c mouse
Experimental: (§1) The effects of PEGylated TPO Compound No. 1 on mice treated with carboplatin were observed. For all examples herein, a 10 mg/ml stock solution of PEGylated TPO Compound No. 1 was prepared in sterile saline. For mixing, the preparation was placed on a gyratory shaker for 15 mm. at 200 rpm. This method was used to dissolve PEGylated TPO Compound No. 1 without foaming. The stock was filtered using a GV Millex (0.22 μm) filter. Dosing solutions were then prepared from this stock using sterile saline. The stock and dosing solutions were prepared fresh on the day of use.
The possibility that PEGylated TPO Compound No. 1 may sensitize bone marrow hematopoietic stem cells of mice to the toxic effects of carboplatin treatment was examined. For this study, a dose of PEGylated TPO Compound No. 1 was administered to the mice seven days prior to the carboplatin dose or immediately after carboplatin treatment. An additional group was treated with PEGylated TPO Compound No. 1 both prior to and after carboplatin administration. The effect of these dosing regimens on hematological parameters was also observed.
The groups of mice were treated with either carboplatin or vehicle (Phosphate Buffered Saline, PBS) by ip administration on Days 7 and 8 as delineated below. The optimal dose of carboplatin used to induce thrombocytopenia in the BALB/c mouse strain was previously determined to be a fractionated total dose of 120 mg/kg given as two consecutive daily injections (i.e., 2×60 mg/kg). Seven days prior to the first carboplatin dose or one (1) hour after the second dose of carboplatin, groups of mice were treated with PEGylated TPO Compound No. 1 (300 μg/kg) or vehicle (sterile saline, SS, preservative-free 0.9% sodium chloride) by IV (bolus) injection as delineated in Table 2. An additional group was treated with PEGylated TPO Compound No. 1 both before (Day 0) and after (Day 8, t=1 h) the carboplatin dose. All dosing was performed on a per-weight basis (100 μl/10 g body weight).
On Days 14, 18, 22 and 26, five mice in each test group were weighed and then euthanised using CO2-asphyxiation and exsanguination via cardiac puncture. The blood samples were transferred to separate EDTA (lavender-top) microcontainers for hematological evaluation. Groups of control mice (5) were processed on Days 14 and 26. The data are presented graphically as group means +SEM.

carboplatin treated mice [2] = assay: Example 6: mechanistic study, increasing carboplatin, hematology and brain fibrinogen/fibrin histology; assay type: in vivo, mouse
Experimental: as §1
For mechanistic studies, groups of mice were treated with vehicle or increasing amounts of carboplatin (i.e., 60, 70 or 80 mg/kg) for 2 consecutive days (Day −1 & Day 0). Approximately one hour following the second dose of carboplatin, groups of mice were treated with PEGylated TPO Compound No. 1 (100 μg/kg) or vehicle (sterile saline, SS, preservative-free 0.9% sodium chloride) by IV (bolus) injection as delineated in Table 5.
On Day 15, the mice in all treatment groups were euthanised using CO2-asphyxiation and exsanguinations via cardiac puncture. The blood samples were transferred to separate EDTA (lavender-top) microtainers for hematologic evaluation. In addition, several organs (including the brains) of control mice and mice treated with 2×70 mg/kg carboplatin without and with co-treatment with PEGylated TPO Compound No. 1 were isolated and processed for histological examination. Sections of these tissues were processed immunohistochemically for fibrinogen/fibrin.

[3] = target: T1, human TPO receptor, c-mpl (hTPOr) (Homo sapiens, UniProt P40238); assay: Example 7: Baf/3 hTPOr fos/lux luciferase reporter assay; assay type: cell-based
T1 construct: expressed in transfected cells
T1 sequence (P40238 26-635): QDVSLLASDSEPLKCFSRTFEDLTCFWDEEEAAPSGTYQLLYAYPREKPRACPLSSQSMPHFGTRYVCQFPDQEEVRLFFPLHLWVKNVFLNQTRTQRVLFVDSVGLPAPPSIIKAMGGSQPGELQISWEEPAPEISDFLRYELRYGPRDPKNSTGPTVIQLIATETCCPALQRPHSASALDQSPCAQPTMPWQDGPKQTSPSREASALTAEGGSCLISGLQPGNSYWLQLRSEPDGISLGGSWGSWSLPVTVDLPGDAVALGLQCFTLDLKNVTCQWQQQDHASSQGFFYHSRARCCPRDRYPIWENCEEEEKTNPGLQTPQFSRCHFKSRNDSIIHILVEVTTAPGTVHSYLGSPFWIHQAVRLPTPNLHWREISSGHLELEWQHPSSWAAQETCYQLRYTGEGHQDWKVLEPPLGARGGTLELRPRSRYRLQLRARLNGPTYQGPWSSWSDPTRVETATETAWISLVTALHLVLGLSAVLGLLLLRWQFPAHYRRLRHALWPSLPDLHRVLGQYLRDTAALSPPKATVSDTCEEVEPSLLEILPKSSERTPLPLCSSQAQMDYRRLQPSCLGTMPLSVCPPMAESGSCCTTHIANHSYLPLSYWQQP
Excerpt: The activity of the peptide compounds can be determined using standard relative luminescent units assay techniques. The assay employs, e.g., murine cells engineered to stably express the human TPO receptor and a luciferase reporter construct driven by the fos promoter. The assay may be performed as follows: Serum deprived Baf/3 hTPOr fos/lux cells expressing the human TPO receptor, c-mpl (hTPOr), and a luciferase reporter construct are exposed to increasing concentrations of either rhTPO or peptide compound for approximately 18 hours. Cells are then incubated in a medium containing a luciferase substrate and the luminescence of the cells is measured using a luminometer.

Compound	decreases in hemoglobin levels, RBC counts and hematocrits (carboplatin treated mice [1]; carboplatin alone 2×60 mg/kg ip, Days 18 and 22 compared to control groups)	body weight loss (average) (carboplatin treated mice [1]; carboplatin alone, between Days 7 and 26)	mortality (carboplatin treated mice [2]; 2×80 mg/kg carboplatin (alone), all of the mice, prior to study termination)	activation of TPO-R compared with TPO ([3]; at the same concentration as TPO)	activation of Baf/3 cells recombinantly expressing human TPO-R ([3]; increasing concentrations)	carboplatin-induced changes in erythrocyte parameters (carboplatin treated mice [1]; 300 μg/kg iv on Day 0 (only), seven days prior to carboplatin)	carboplatin-induced decreases in hemoglobin levels, RBC counts and hematocrits (carboplatin treated mice [1]; 300 μg/kg iv on Day 8 (1 hour after second carboplatin) without or with additional dose on Day 0)	body weight between Days 7 and 26 (carboplatin treated mice [1]; carboplatin plus various co-treatments, 300 μg/kg iv, no statistical analysis)	onset of signs (hunched, unkempt) (carboplatin treated mice [1]; treatment on Day 8 without or with additional treatment on Day 0)	severity and duration of signs (hunched, unkempt) (carboplatin treated mice [1]; treatment on Days 0 and 8)	carboplatin-induced decreases in platelet and RBC counts (carboplatin treated mice [2]; 100 μg/kg iv about one hour after second carboplatin dose, Day 15)	microthrombotic events in brain sections, entire dose group (carboplatin treated mice [2]; 2×70 mg/kg carboplatin plus 100 μg/kg iv)	fibrinogen/fibrin staining of small vessels in brain sections (carboplatin treated mice [2]; 2×70 mg/kg carboplatin plus 100 μg/kg iv, Day 15, 70 mg/kg)	thrombocytopenia or anemia (carboplatin treated mice [2]; 2×80 mg/kg carboplatin plus 100 μg/kg iv, Day 15)	survival (carboplatin treated mice [2]; 2×80 mg/kg carboplatin plus 100 μg/kg iv, all of the mice)
N.N.O=C([O-])C1(C(=O)[O-])CCC1.[Pt+2] [carboplatin, reference compound]	approx. 18%	approximately 4%	either found dead or were euthanized (moribund)	–	–	–	–	–	–	–	–	–	–	–	–
Methoxypolyethyleneglycol20000-propionyl-L-Isoleucyl-L-Glutamyl-Glycyl-L-Prolyl-L-Threonyl-L-Leucyl-L-Arginyl-L-Glutaminyl-L-2-Naphthylalanyl-L-Leucyl-L-Alanyl-L-Alanyl-L-Arginyl-Sarcosyl-Ne-(methoxypolyethyleneglycol20000-propionyl-L-Isoleucyl-L-Glutamyl-Glycyl-L-Prolyl-L-Threonyl-L-Leucyl-L-Arginyl-L-Glutaminyl-L-2-Naphthylalanyl-L-Leucyl-L-Alanyl-L-Alanyl-L-Arginyl-Sarcosyl-)-Lysinamide ({methoxypolyethyleneglycol20000‑propionyl}-IEGPTLRQ[2Nal]LAAR[Sar]K[Sar]RAAL[2Nal]QRLTPGEI; also: dimer: positions 16-29 are the second 14-mer written in reverse, its Sar C-terminus joined to the K15 epsilon-amine, K15 is C-terminal lysinamide (NH2), methoxypolyethyleneglycol20000-propionyl also on Ile29 N-terminus) [PEGylated TPO Compound No. 1]	–	–	–	stronger activation	dose dependent	failed to affect carboplatin-induced changes	prevented	prevented this weight loss	appeared to delay the onset of these signs	decreased the severity and duration	totally inhibited	single	appeared normal or exhibited fibrinogen/fibrin staining that was only slightly darker than the control group; also recorded: reduces fibrinogen deposition and blood clots	did not exhibit thrombocytopenia or anemia	survived until the scheduled study termination
